“And” between values parts separate entries of the source, which are not always exact repeats. Equal entries are not always repeated. Toxic doses and inconclusive results are not listed.
Test system: P388 leukemia ip, CD2F1 mice, survival T/C
Experiment: NCI In Vivo Anticancer Drug Screen. Data for tumor model P388 Leukemia (intraperitoneal) in CD2F1 (CDF1) mice
Settings: endpoint: median survival time, higher = longer survival
Outline: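 Mice carrying the transplanted tumor received test compound or vehicle. Survival was recorded in each group, and the value is the treated-group measurement divided by that of the vehicle-treated control group.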

[1] = dose: 60.0 mg/kg/injection, schedule: Q01DX005 (ip), vehicle: saline with Tween-80
[2] = dose: 120.0 mg/kg/injection, schedule: Q01DX005 (ip), vehicle: saline with Tween-80
[3] = dose: 240.0 mg/kg/injection, schedule: Q01DX005 (ip), vehicle: saline with Tween-80
[4] = dose: 50.0 mg/kg/injection, schedule: Q01DX009 (ip), vehicle: saline
[5] = dose: 100.0 mg/kg/injection, schedule: Q01DX009 (ip), vehicle: saline
[6] = dose: 200.0 mg/kg/injection, schedule: Q01DX009 (ip), vehicle: saline
[7] = dose: 100.0 mg/kg/injection, schedule: Q01DX009 (ip), vehicle: saline with Tween-80
[8] = dose: 100.0 mg/kg/injection, schedule: Q04DX003 (ip), vehicle: saline with Tween-80

## Cc1ccc(C(=O)n2c(Br)c(/C=N/NC(N)=S)c3ccccc32)cc1
dose: 100.0 mg/kg/injection, schedule: Q01DX001 (ip), vehicle: Klucel (hydroxypropylcellulose) (HPC)
  T/C: 100 % of control
dose: 200.0 mg/kg/injection, schedule: Q01DX001 (ip), vehicle: Klucel (hydroxypropylcellulose) (HPC)
  T/C: 100 % of control
dose: 400.0 mg/kg/injection, schedule: Q01DX001 (ip), vehicle: Klucel (hydroxypropylcellulose) (HPC)
  T/C: 95 % of control

## [CH3][Sn]([CH3])([O]C(=O)CNC(=O)c1ccccc1)[O]C(=O)CNC(=O)c1ccccc1
dose: 0.79 mg/kg/injection, schedule: Q01DX001 (ip), vehicle: Klucel (hydroxypropylcellulose) (HPC)
  T/C: 97 % of control
dose: 1.56 mg/kg/injection, schedule: Q01DX001 (ip), vehicle: Klucel (hydroxypropylcellulose) (HPC)
  T/C: 93 % of control
dose: 3.12 mg/kg/injection, schedule: Q01DX001 (ip), vehicle: Klucel (hydroxypropylcellulose) (HPC)
  T/C: 100 % of control

## COc1ccc2c(=O)c(Cc3c(-c4ccccc4)[nH]c4ccccc34)coc2c1
[1]
  T/C: 98 % of control
[2]
  T/C: 91 % of control
[3]
  T/C: 90 % of control

## COCc1c(-c2ccccc2)nn(O)c1-c1ccccc1
dose: 50.0 mg/kg/injection, schedule: Q01DX001 (ip), vehicle: saline with Tween-80
  T/C: 103 % of control
dose: 100.0 mg/kg/injection, schedule: Q01DX001 (ip), vehicle: saline with Tween-80
  T/C: 96 % of control
dose: 200.0 mg/kg/injection, schedule: Q01DX001 (ip), vehicle: saline with Tween-80
  T/C: 87 % of control

## Nc1cc(C(F)(F)F)ccc1-c1ccn[nH]1
[4]
  T/C: 94 % of control
[5]
  T/C: 97 % of control
[6]
  T/C: 96 % of control

## O=C1c2ccccc2C(=O)c2c(O)ccc3cccc1c23
dose: 50.0 mg/kg/injection, schedule: Q01DX005 (ip), vehicle: Klucel + Tween-80
  T/C: 92 % of control
dose: 100.0 mg/kg/injection, schedule: Q01DX005 (ip), vehicle: Klucel + Tween-80
  T/C: 92 % of control
dose: 200.0 mg/kg/injection, schedule: Q01DX005 (ip), vehicle: Klucel + Tween-80
  T/C: 92 % of control

## CCN1C(SC)=NC(=O)C1(c1ccc(C)cc1)c1ccc(C)cc1
dose: 50.0 mg/kg/injection, schedule: Q01DX005 (ip), vehicle: Klucel (hydroxypropylcellulose) (HPC)
  T/C: 100 % of control
dose: 100.0 mg/kg/injection, schedule: Q01DX005 (ip), vehicle: Klucel (hydroxypropylcellulose) (HPC)
  T/C: 106 % of control
dose: 200.0 mg/kg/injection, schedule: Q01DX005 (ip), vehicle: Klucel (hydroxypropylcellulose) (HPC)
  T/C: 98 % of control

## CCc1ccccc1N1CCN(C(=O)c2cc(OC)c(OC)c(OC)c2)CC1
dose: 12.5 mg/kg/injection, schedule: Q01DX009 (ip), vehicle: Klucel (hydroxypropylcellulose) (HPC)
  T/C: 95 % of control
dose: 12.5 mg/kg/injection, schedule: Q01DX009 (ip), vehicle: saline
  T/C: 100 % of control and 120 % of control
dose: 25.0 mg/kg/injection, schedule: Q01DX009 (ip), vehicle: Klucel (hydroxypropylcellulose) (HPC)
  T/C: 104 % of control
dose: 25.0 mg/kg/injection, schedule: Q01DX009 (ip), vehicle: saline
  T/C: 102 % of control and 91 % of control
dose: 44.0 mg/kg/injection, schedule: Q01DX009 (ip), vehicle: saline with Tween-80
  T/C: 120 % of control
dose: 50.0 mg/kg/injection, schedule: Q01DX009 (ip), vehicle: Klucel (hydroxypropylcellulose) (HPC)
  T/C: 113 % of control
[4]
  T/C: 102 % of control and 93 % of control
dose: 66.0 mg/kg/injection, schedule: Q01DX009 (ip), vehicle: saline with Tween-80
  T/C: 115 % of control
dose: 75.0 mg/kg/injection, schedule: Q04DX003 (ip), vehicle: saline with Tween-80
  T/C: 109 % of control
[7]
  T/C: 115 % of control
[5]
  T/C: 90 % of control and 93 % of control
[8]
  T/C: 105 % of control
dose: 150.0 mg/kg/injection, schedule: Q01DX009 (ip), vehicle: saline with Tween-80
  T/C: 150 % of control
dose: 150.0 mg/kg/injection, schedule: Q04DX003 (ip), vehicle: saline with Tween-80
  T/C: 114 % of control
dose: 200.0 mg/kg/injection, schedule: Q01DX009 (ip), vehicle: Klucel (hydroxypropylcellulose) (HPC)
  T/C: 92 % of control
[6]
  T/C: 88 % of control
dose: 225.0 mg/kg/injection, schedule: Q04DX003 (ip), vehicle: saline with Tween-80
  T/C: 121 % of control
dose: 300.0 mg/kg/injection, schedule: Q04DX003 (ip), vehicle: saline with Tween-80
  T/C: 100 % of control
dose: 400.0 mg/kg/injection, schedule: Q01DX009 (ip), vehicle: saline
  T/C: 95 % of control

## CCOC(=O)/C=C/C(F)(F)F
dose: 30.0 mg/kg/injection, schedule: Q01DX005 (ip), vehicle: saline with Tween-80
  T/C: 100 % of control
dose: 30.0 mg/kg/injection, schedule: Q01DX005 (ip), vehicle: saline
  T/C: 94 % of control
[1]
  T/C: 100 % of control
dose: 60.0 mg/kg/injection, schedule: Q01DX005 (ip), vehicle: saline
  T/C: 99 % of control and 101 % of control
[2]
  T/C: 100 % of control
dose: 120.0 mg/kg/injection, schedule: Q01DX005 (ip), vehicle: saline
  T/C: 100 % of control and 101 % of control
[3]
  T/C: 107 % of control
dose: 240.0 mg/kg/injection, schedule: Q01DX005 (ip), vehicle: saline
  T/C: 100 % of control and 120 % of control

## O=C(O)C1=C(C(=O)Nc2ccc(NC(=O)C3=C(C(=O)O)CCC3)cc2)CCC1
dose: 12.5 mg/kg/injection, schedule: Q01DX009 (ip), vehicle: distilled water + Tween-80
  T/C: 93 % of control
dose: 25.0 mg/kg/injection, schedule: Q01DX009 (ip), vehicle: distilled water + Tween-80
  T/C: 98 % of control
dose: 50.0 mg/kg/injection, schedule: Q01DX009 (ip), vehicle: distilled water + Tween-80
  T/C: 97 % of control
dose: 100.0 mg/kg/injection, schedule: Q01DX009 (ip), vehicle: distilled water + Tween-80
  T/C: 105 % of control
dose: 200.0 mg/kg/injection, schedule: Q01DX009 (ip), vehicle: distilled water + Tween-80
  T/C: 115 % of control

## N#CC(C#N)=Cc1ccc(N2CCCCC2)cc1
[4]
  T/C: 87 % of control
[5]
  T/C: 88 % of control
[6]
  T/C: 100 % of control

## CCOc1c(N=Nc2ccc(Cl)cc2Cl)c(C)nn1C(N)=S
dose: 15.0 mg/kg/injection, schedule: Q01DX005 (ip), vehicle: Klucel (hydroxypropylcellulose) (HPC)
  T/C: 95 % of control
dose: 30.0 mg/kg/injection, schedule: Q01DX005 (ip), vehicle: Klucel (hydroxypropylcellulose) (HPC)
  T/C: 90 % of control

## Cc1ccc2nc(N/N=C/c3cccc(C)n3)cc(C)c2c1
dose: 12.5 mg/kg/injection, schedule: Q01DX005 (ip), vehicle: saline with Tween-80
  T/C: 100 % of control
dose: 25.0 mg/kg/injection, schedule: Q01DX005 (ip), vehicle: saline with Tween-80
  T/C: 90 % of control
dose: 50.0 mg/kg/injection, schedule: Q01DX005 (ip), vehicle: saline with Tween-80
  T/C: 100 % of control and 93 % of control
dose: 100.0 mg/kg/injection, schedule: Q01DX005 (ip), vehicle: saline with Tween-80
  T/C: 100 % of control

## CN(CC(=O)N1CCOCC1)Cc1c(Cl)cccc1NC(=O)c1ccccc1
[4]
  T/C: 100 % of control
[5]
  T/C: 103 % of control
[6]
  T/C: 105 % of control

## Cc1cccn2c(N=O)cnc12
[8]
  T/C: 98 % of control

## C[C@]12CC[C@@H](OC(=O)N(CCCl)N=O)C[C@@H]1CC[C@@H]1[C@@H]2CC[C@]2(C)C(=O)CC[C@@H]12
dose: 25.0 mg/kg/injection, schedule: Q01DX005 (ip), vehicle: other
  T/C: 105 % of control
dose: 25.0 mg/kg/injection, schedule: Q01DX009 (ip), vehicle: other
  T/C: 121 % of control
dose: 31.2 mg/kg/injection, schedule: Q04DX003 (ip), vehicle: saline
  T/C: 111 % of control
dose: 50.0 mg/kg/injection, schedule: Q01DX005 (ip), vehicle: other
  T/C: 122 % of control
dose: 50.0 mg/kg/injection, schedule: Q01DX009 (ip), vehicle: other
  T/C: 123 % of control
dose: 50.0 mg/kg/injection, schedule: Q01DX009 (ip), vehicle: saline with Tween-80
  T/C: 97 % of control
dose: 62.5 mg/kg/injection, schedule: Q04DX003 (ip), vehicle: saline
  T/C: 109 % of control
dose: 100.0 mg/kg/injection, schedule: Q01DX005 (ip), vehicle: other
  T/C: 114 % of control
[7]
  T/C: 100 % of control
dose: 125.0 mg/kg/injection, schedule: Q04DX003 (ip), vehicle: saline
  T/C: 108 % of control and 112 % of control
dose: 200.0 mg/kg/injection, schedule: Q01DX009 (ip), vehicle: saline with Tween-80
  T/C: 97 % of control
dose: 250.0 mg/kg/injection, schedule: Q04DX003 (ip), vehicle: saline
  T/C: 100 % of control

## CCN(CC)CCCNc1ccc([N+](=O)[O-])c2no[n+]([O-])c12
[4]
  T/C: 99 % of control
[5]
  T/C: 100 % of control

— PubChem BioAssay AID330 (DTP/NCI, 2004)
